# Assay results: the supplement of paper PMC10307832
# Compound: O=C(/C=C/c1ccccc1)NC(NC(=S)Nc1cccc2cccnc12)C(Cl)(Cl)Cl [Salubrinal] + Nc1ncn([C@H]2C[C@H](O)[C@@H](CO)O2)c(=O)n1 [Decitabine] (partner 2 µM)
# Assay: relative viability (nuclei count vs DMSO), 5 days (fraction); higher = more cells survive
# Settings: first compound 0.08 µM
# In short: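 Lung cancer cell lines in 1536-well plates were dosed by pin tool the day after seeding, either with one drug alone or with a fixed anchor-drug dose plus five library-drug doses (not always all listed) in √10 steps. After 5 days, cells were fixed and their nuclei stained in one step (final 0.05% Triton X-100, 1% formaldehyde, 1 ug/ml Hoechst), then counted on 4× images. Relative viability is the nuclei count in treated wells divided by that in vehicle wells. Values are medians of duplicate plates.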
row,Cell Line,relative viability
1,NCI-H1793,0.625
2,NCI-H2405,0.726
3,HOP-62,0.192
4,HCC-44,0.955
5,LU99A,1.05
6,BEN,0.711
7,HARA,0.402
8,HCC-78,0.735
9,NCI-H322M,0.785
10,LCLC-97TM1,0.248
11,A-427,0.575
12,NCI-H441,0.235
13,NCI-H1734,0.573
14,NCI-H460,0.517
15,NCI-H2347,0.598
16,NCI-H1395,0.792
17,201T,0.918

row,Cell Line,relative viability
1,NCI-H1915,0.249
2,HCC-827,0.303
3,LXF-289,0.338
4,NCI-H23,0.315
5,NCI-H647,0.389
6,NCI-H1651,0.654
7,EPLC-272H,0.403
8,NCI-H1792,0.608
9,NCI-H1355,0.352
10,NCI-H3122,0.399
11,NCI-H1437,0.549
12,NCI-H1755,0.759
13,HCC-15,0.723
14,PC-14,0.211
15,EKVX,0.367
16,LC-2-ad,0.751

# Same assay, conditions: first compound 0.253 µM
row,Cell Line,relative viability
1,NCI-H1793,0.494
2,NCI-H2405,0.726
3,HOP-62,0.206
4,HCC-44,0.969
5,LU99A,0.844
6,BEN,0.726
7,HARA,0.498
8,HCC-78,0.661
9,NCI-H322M,0.648
10,LCLC-97TM1,0.223
11,A-427,0.564
12,NCI-H441,0.243
13,NCI-H1734,0.51
14,NCI-H460,0.461
15,NCI-H2347,0.571
16,NCI-H1395,0.686

row,Cell Line,relative viability
1,201T,0.815
2,HCC-827,0.335
3,LXF-289,0.382
4,NCI-H23,0.316
5,NCI-H647,0.452
6,NCI-H1651,0.542
7,EPLC-272H,0.373
8,NCI-H1355,0.394
9,NCI-H3122,0.443
10,NCI-H1437,0.502
11,NCI-H1755,0.686
12,HCC-15,0.555
13,PC-14,0.228
14,EKVX,0.366
15,LC-2-ad,0.63

# Same assay, conditions: first compound 0.8 µM
row,Cell Line,relative viability
1,NCI-H1793,0.521
2,NCI-H2405,0.754
3,HOP-62,0.196
4,HCC-44,0.935
5,LU99A,0.938
6,BEN,0.865
7,HARA,0.601
8,HCC-78,0.816
9,NCI-H322M,0.684
10,LCLC-97TM1,0.234
11,A-427,0.57
12,NCI-H441,0.265
13,NCI-H1734,0.527
14,NCI-H460,0.475
15,NCI-H2347,0.663
16,NCI-H1395,0.707
17,201T,0.859

row,Cell Line,relative viability
1,NCI-H1915,0.268
2,HCC-827,0.361
3,LXF-289,0.357
4,NCI-H23,0.304
5,NCI-H647,0.451
6,NCI-H1651,0.681
7,EPLC-272H,0.369
8,NCI-H1792,0.741
9,NCI-H1355,0.359
10,NCI-H3122,0.51
11,NCI-H1437,0.523
12,NCI-H1755,0.744
13,HCC-15,0.773
14,PC-14,0.201
15,EKVX,0.482
16,LC-2-ad,0.792

# Same assay, conditions: first compound 2.53 µM
row,Cell Line,relative viability
1,NCI-H1793,0.467
2,NCI-H2405,0.757
3,HOP-62,0.187
4,HCC-44,0.934
5,LU99A,0.951
6,BEN,0.741
7,HARA,0.517
8,HCC-78,0.606
9,NCI-H322M,0.716
10,LCLC-97TM1,0.21
11,A-427,0.539
12,NCI-H441,0.269
13,NCI-H1734,0.474
14,NCI-H460,0.379
15,NCI-H2347,0.649
16,NCI-H1395,0.67
17,201T,0.84

row,Cell Line,relative viability
1,NCI-H1915,0.248
2,HCC-827,0.345
3,LXF-289,0.43
4,NCI-H23,0.312
5,NCI-H647,0.443
6,NCI-H1651,0.634
7,EPLC-272H,0.405
8,NCI-H1792,0.49
9,NCI-H1355,0.36
10,NCI-H3122,0.461
11,NCI-H1437,0.564
12,NCI-H1755,0.725
13,HCC-15,0.762
14,PC-14,0.189
15,EKVX,0.286
16,LC-2-ad,0.771

# Same assay, conditions: first compound 8 µM
row,Cell Line,relative viability
1,NCI-H1793,0.608
2,NCI-H2405,0.729
3,HOP-62,0.224
4,HCC-44,0.919
5,LU99A,0.757
6,BEN,0.766
7,HARA,0.605
8,HCC-78,0.624
9,NCI-H322M,0.656
10,LCLC-97TM1,0.257
11,A-427,0.597
12,NCI-H441,0.222
13,NCI-H1734,0.477
14,NCI-H460,0.444
15,NCI-H2347,0.661
16,NCI-H1395,0.692
17,201T,0.83

row,Cell Line,relative viability
1,NCI-H1915,0.246
2,HCC-827,0.341
3,LXF-289,0.405
4,NCI-H23,0.291
5,NCI-H647,0.552
6,NCI-H1651,0.661
7,EPLC-272H,0.362
8,NCI-H1792,0.405
9,NCI-H1355,0.35
10,NCI-H3122,0.442
11,NCI-H1437,0.612
12,NCI-H1755,0.68
13,HCC-15,0.61
14,PC-14,0.236
15,EKVX,0.331
16,LC-2-ad,0.813
